Consider four compounds from patent US9492467B2, “Rapid-acting insulin formulation comprising an oligosaccharide” (ADOCIA, priority 2011, dated 2016).

Data set [1] deals with T1, insulin lispro (hexameric form R6) (Homo sapiens, UniProt P01308, K53P/P52K).
T1 construct: purchased Eli Lilly Humalog®
Kind of data set: State of association of insulin lispro by circular dichroism (CD signal at 251 nm). It is filed as physicochemical. The conditions noted are these: added to Humalog, FIG. 27. The text has this: Circular dichroism makes it possible to study the secondary and quaternary structure of insulin. The insulin monomers organize into dimers and hexamers. […] There are two hexameric forms, form R6 and form T6. […] Loss of the CD signal at 251 nm is connected with destabilization of the hexamer (and therefore the first sign of transformation of the hexamer to dimer).
In general terms: Circular dichroism is widely used to follow secondary structure.

The target in data set [2] is human insulin (hexameric form) (Homo sapiens, UniProt P01308). Kind of data set: State of association of human insulin by circular dichroism (CD signal at 276 nm). It is filed as physicochemical. The note with it: absence of m-cresol, FIG. 28. An excerpt: Loss of the CD signal at 276 nm is therefore characteristic of destabilization of the hexamer to dimers or monomers.

The conditions of data set [3]: pH; cited from earlier work.
The test system of the next data set is humans. The conditions noted are these: injected subcutaneously; cited from earlier work.
The conditions of data set [4]: form of hexamers, 4° C.; cited from earlier work.

Counter-ions that a name gives are not always drawn.

T1 sequence (P01308 25-54 P52K/K53P limits assumed): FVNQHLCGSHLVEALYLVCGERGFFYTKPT
T1 sequence (P01308 90-110 limits assumed): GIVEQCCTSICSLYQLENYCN
Sequence of human insulin (hexameric form) (P01308 25-54 limits assumed): as the sequence (P01308 25-54 P52K/K53P limits assumed) above, with K28P, P29K counted along it

As for `O=C(O)CN(CCN(CC(=O)O)CC(=O)O)CC(=O)O` [EDTA, reference compound], the “effect on the CD signal at 251 nm / R6 form of insulin lispro” value in data set [1] was “completely destructures the R6 form of insulin lispro”. Further, the “effect on the hexameric structure of human insulin (CD signal at 276 nm)” value in data set [2] is reported as “complete dissociation of the hexamer to dimers”.
On to `O=C(O)CC(O)(CC(=O)O)C(=O)O` [citrate, sodium citrate], for which the “effect on the CD signal at 251 nm / R6 form of insulin lispro” value in data set [1] is “almost no effect”.
For “Insulin lispro: rapid-acting insulin analog, active of Humalog®”, in data set [3], the isoelectric point is 5.3.
Turning to “human insulin: insulin obtained by synthesis or recombination whose peptide sequence is the sequence of human insulin”, in the data set with humans, the hypoglycemic effect after was 60 min. Besides, the “stable for” value in data set [4] is listed as roughly 2 years.
